A word on the melting point: it is the temperature of the solid-liquid transition.

SMILES strings stand for the structures.

The subject of the first series is CD34+CD38- cells. In words: Assay Example 3: expansion of CD34+CD38- cells using human cord blood-derived CD34+ cells (Table 22). To be noted: based on number of CD34+CD38- cells in absence of compound; 0.01 to 10 μg/mL compound; 100 ng/mL SCF and 20 ng/mL TPO; 7 days. The series is classed as cell-based. Here is the method: Human cord blood-derived CD34^+ cells purchased from the same supplier as in Assay Example 1 were plated on a 24-well plate (Corning) (10000 cells/1 mL/well). As the culture medium, StemSpan SFEM (StemCell Technologies) containing 100 ng/mL SCF (Wako Pure Chemical Industries) in terms of final concentration and 20 ng/mL TPO (PeproTech) in terms of final concentration was used, and Compounds Nos. 1-01 to 4-91 dissolved in dimethyl sulfoxide were added in an amount of 0.1% (v/v) to a final concentration of 0.01 to 10 μg/mL. As a negative control, the medium containing 0.1% (v/v) dimethyl sulfoxide was used.
After the cells were incubated in liquid culture at 37° C. for 7 days in a CO2 incubator (5% CO2), the number of viable cells was counted by trypan blue assay. The number of CD34^+CD38^− cells was calculated in the same manner as in Assay Example 1.
As to `COC(=O)CC1=NN(C(C)(C)c2ccccc2)C(=O)C1` [Compound No. 4-01, methyl 2-(5-oxo-1-(2-phenylpropan-2-yl)-4,5-dihydro-1H-pyrazol-3-yl)acetate], the Expansion efficiency result was “C (C for expansion efficiencies of at least 1.5 and less than 3)”. Same read-out and setting: to `COC(=O)c1ccc(-c2c(C(C)C)nn(C(C)(C)Cc3ccccc3)c2O)cc1` [Compound No. 4-23, methyl 4-(5-hydroxy-3-isopropyl-1-(2-methyl-1-phenylpropan-2-yl)-1H-pyrazol-4-yl)benzoate] belongs “A (A for expansion efficiencies of 4 or greater)”; to `CCCCCCc1ccc(-c2c(C#N)nn(C(C)(C)Cc3ccc(C)cc3)c2O)cc1` [Compound No. 4-86, 4-(4-Hexylphenyl)-5-hydroxy-1-(2-methyl-1-(p-tolyl)propan-2-yl)-1H-pyrazole-3-carbonitrile], “C (C for expansion efficiencies of at least 1.5 and less than 3)”. On the same count and under the same terms, to `CC(C)C1=NN(C(C)(C)Cc2ccccc2)C(=O)C1Br` (stereo not shown) [Compound No. 3-47, 4-bromo-3-isopropyl-1-(2-methyl-1-phenylpropan-2-yl)-1H-pyrazol-5(4H)-one] belongs “C (C for expansion efficiencies of at least 1.5 and less than 3)”.

As to `CC(C)C1=NN(C(C)(C)Cc2ccc(Br)cc2)C(=O)C1` [Compound No. 3-12, 1-(1-(4-bromophenyl)-2-methylpropan-2-yl)-3-isopropyl-1H-pyrazol-5(4H)-one], the Expansion efficiency result is “B (B for expansion efficiencies of at least 3 and less than 4)”. Same read-out and setting: then `CC(C)(Cc1ccccc1)N1N=C(c2ccccc2)CC1=O` [Compound No. 3-16, 1-(2-methyl-1-phenylpropan-2-yl)-3-phenyl-1H-pyrazol-5(4H)-one], with “A (A for expansion efficiencies of 4 or greater)”; and `CON=C(C)c1c(C(C)C)nn(C(C)(C)Cc2ccccc2)c1O` [Compound No. 4-89, 1-(5-Hydroxy-3-isopropyl-1-(2-methyl-1-phenylpropan-2-yl)-1H-pyrazol-4-yl)ethanone O-methyl oxime], with “C (C for expansion efficiencies of at least 1.5 and less than 3)”; and `CCCCCCc1ccc(-c2c(C(C)C)nn(C(C)(C)Cc3ccc(C)cc3)c2O)cc1` [Compound No. 3-07, 4-(4-hexylphenyl)-3-isopropyl-1-(2-methyl-1-p-tolylpropan-2-yl)-1H-pyrazol-5-ol], with “A (A for expansion efficiencies of 4 or greater)”.

Test system in another series: not given
Test: not given
Settings: not given
As for `CCCCCCc1ccc(-c2cnn(C(C)(C)Cc3ccc(C)cc3)c2O)cc1` [Compound No. 4-90, 4-(4-Hexylphenyl)-1-(2-methyl-1-(p-tolyl)propan-2-yl)-1H-pyrazol-5-ol], the melting point lay in the range of 149 to 151 °C. Compound `CCCCCCc1ccc(-c2c(C#N)nn(C(C)(C)Cc3ccc(C)cc3)c2O)cc1` [Compound No. 4-86, 4-(4-Hexylphenyl)-5-hydroxy-1-(2-methyl-1-(p-tolyl)propan-2-yl)-1H-pyrazole-3-carbonitrile] returned a melting point of 140 to 142 °C.

Values taken from US9212348B2, “Method for producing hematopoietic stem cells using pyrazole compounds” (NISSAN CHEMICAL INDUSTRIES, LTD., priority 2010, dated 2015).
